Assays:
[1] = target: T1, Alpha-1A adrenergic receptor (Homo sapiens, UniProt P35348)
T1 sequence (P35348 whole entry): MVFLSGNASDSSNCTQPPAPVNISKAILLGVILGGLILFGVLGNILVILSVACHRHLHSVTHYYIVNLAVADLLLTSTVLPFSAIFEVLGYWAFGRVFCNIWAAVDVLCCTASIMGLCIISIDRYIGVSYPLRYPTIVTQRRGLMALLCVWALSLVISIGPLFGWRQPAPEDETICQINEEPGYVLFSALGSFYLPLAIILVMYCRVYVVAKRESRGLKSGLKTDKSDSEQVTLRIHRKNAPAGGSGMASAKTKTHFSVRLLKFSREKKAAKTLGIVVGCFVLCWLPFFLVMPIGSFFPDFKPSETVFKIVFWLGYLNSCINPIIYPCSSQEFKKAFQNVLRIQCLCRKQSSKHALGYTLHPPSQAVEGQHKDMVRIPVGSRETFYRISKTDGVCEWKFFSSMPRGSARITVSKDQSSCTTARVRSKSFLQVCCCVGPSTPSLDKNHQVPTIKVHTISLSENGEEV
Description: Binding affinity towards recombinant human alpha-1A adrenergic receptor

D(3) dopamine receptor = D(3) dopamine receptor (Homo sapiens, UniProt P35462)
D(3) dopamine receptor, sequence (P35462 whole entry): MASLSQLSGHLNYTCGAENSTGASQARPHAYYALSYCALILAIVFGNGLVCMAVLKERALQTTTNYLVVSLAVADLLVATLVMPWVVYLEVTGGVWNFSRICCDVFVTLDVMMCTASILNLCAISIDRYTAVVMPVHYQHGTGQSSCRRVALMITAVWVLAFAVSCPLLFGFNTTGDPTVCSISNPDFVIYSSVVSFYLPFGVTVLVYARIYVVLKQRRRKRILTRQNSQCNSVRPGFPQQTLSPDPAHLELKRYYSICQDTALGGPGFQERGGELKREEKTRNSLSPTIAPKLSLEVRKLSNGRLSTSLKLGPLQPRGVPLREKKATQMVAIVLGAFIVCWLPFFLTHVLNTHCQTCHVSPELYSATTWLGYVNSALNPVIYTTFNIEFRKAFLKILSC
Description: Binding affinity against Dopamine receptor D3

D(4) dopamine receptor = target: T2, D(4) dopamine receptor (Homo sapiens, UniProt P21917)
T2 sequence (P21917 whole entry): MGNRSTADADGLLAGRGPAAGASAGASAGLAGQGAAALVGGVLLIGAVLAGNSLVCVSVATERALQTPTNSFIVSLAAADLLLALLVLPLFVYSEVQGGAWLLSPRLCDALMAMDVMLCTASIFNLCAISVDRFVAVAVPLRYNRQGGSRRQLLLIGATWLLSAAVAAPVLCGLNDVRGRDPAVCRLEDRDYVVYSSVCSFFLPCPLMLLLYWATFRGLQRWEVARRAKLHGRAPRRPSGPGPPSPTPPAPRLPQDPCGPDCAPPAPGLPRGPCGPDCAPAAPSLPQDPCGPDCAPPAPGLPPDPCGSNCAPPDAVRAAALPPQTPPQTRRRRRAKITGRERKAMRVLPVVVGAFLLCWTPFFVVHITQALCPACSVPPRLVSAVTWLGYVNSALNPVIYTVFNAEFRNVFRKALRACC
Description: Binding affinity towards human Dopamine receptor D4

Mus musculus = organism: Mus musculus; assay: animal or person; assay type: functional; settings: sc
Description: In vivo inhibitory activity for apomorphine induced climbing in mice, sc

Ki [1] [nM]	Ki (D(3) dopamine receptor) [nM]	Ki (D(4) dopamine receptor) [nM]	SMILES	ED50 (Mus musculus) [mg/kg]
0.36			COCC1=C(C(=O)OC)[C@H](c2ccc(F)c(F)c2)C(C(=O)NCCCN2CCC(c3ccccn3)CC2)C(=O)N1 (some centres undefined)	
	21	2.1	COc1cc(NC(=O)C2CC2)c(Cl)cc1C(=O)NC1CCN(Cc2ccccc2)C1 (centres undefined)	0.32

Reference: ChEMBL document CHEMBL1149193, “Selective optimization of side activities: another way for drug discovery” (J Med Chem, 2004)
